Several values for one entry are separate records, joined by “and”; a condition that tells them apart may be missing. Identical values can stand only once. Inconclusive results and toxic doses are left out.
Tested on: CD2F1 mice, L1210 leukemia ip, survival T/C
Experiment: NCI In Vivo Anticancer Drug Screen. Data for tumor model L1210 Leukemia (intraperitoneal) in CD2F1 (CDF1) mice
Details: higher = longer survival
Summary of the method: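 Ratio T/C, where T is the treated-group value and C the vehicle-dosed control value, from mice implanted with a transplantable tumor.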

[1] = endpoint: mean survival time, dose: 100.0 mg/kg/injection, schedule: Q04DX003 (ip), vehicle: saline with Tween-80
[2] = endpoint: mean survival time, dose: 200.0 mg/kg/injection, schedule: Q04DX003 (ip), vehicle: saline with Tween-80
[3] = endpoint: mean survival time, dose: 400.0 mg/kg/injection, schedule: Q04DX003 (ip), vehicle: saline with Tween-80
[4] = endpoint: mean survival time, dose: 100.0 mg/kg/injection, schedule: Q04DX002 (ip), vehicle: saline with Tween-80
[5] = endpoint: mean survival time, dose: 200.0 mg/kg/injection, schedule: Q04DX002 (ip), vehicle: saline with Tween-80
[6] = endpoint: mean survival time, dose: 400.0 mg/kg/injection, schedule: Q04DX002 (ip), vehicle: saline with Tween-80
[7] = endpoint: mean survival time, dose: 100.0 mg/kg/injection, schedule: Q01DX009 (ip), vehicle: saline with Tween-80
[8] = endpoint: mean survival time, dose: 100.0 mg/kg/injection, schedule: Q01DX001 (ip), vehicle: saline with Tween-80

SMILES: S=C(S)OCc1ccccc1.[Pt]
- T/C (endpoint: mean survival time, dose: 25.0 mg/kg/injection, schedule: Q04DX003 (ip), vehicle: saline with Tween-80): 102 % of control
- T/C (endpoint: mean survival time, dose: 50.0 mg/kg/injection, schedule: Q04DX003 (ip), vehicle: saline with Tween-80): 102 % of control
- T/C [1]: 104 % of control
- T/C [2]: 102 % of control
- T/C [3]: 104 % of control

SMILES: O=C(NC/C=C/Br)Oc1cccc2ccccc12
- T/C [4]: 101 % of control
- T/C [5]: 93 % of control
- T/C [6]: 101 % of control

SMILES: CCOC(=O)c1cnc2c(cnn2CC)c1N1CCN(CCO)CC1
- T/C (endpoint: mean survival time, dose: 100.0 mg/kg/injection, schedule: Q04DX003 (ip), vehicle: Klucel (hydroxypropylcellulose) (HPC)): 101 % of control

SMILES: C[Si](C)(C)Oc1ccc(O[Si](C)(C)C)cc1
- T/C (endpoint: mean survival time, dose: 100.0 mg/kg/injection, schedule: Q04DX003 (ip), vehicle: other): 109 % of control
- T/C (endpoint: mean survival time, dose: 200.0 mg/kg/injection, schedule: Q04DX003 (ip), vehicle: other): 97 % of control
- T/C (endpoint: mean survival time, dose: 400.0 mg/kg/injection, schedule: Q04DX003 (ip), vehicle: other): 106 % of control

SMILES: CC(C)OC(=O)CC#N
- T/C [1]: 96 % of control
- T/C [2]: 105 % of control
- T/C [3]: 96 % of control

SMILES: NC(Cc1cc([N+](=O)[O-])ccc1CN(CCCl)CCCl)C(=O)O (stereo unspecified)
- T/C (endpoint: mean survival time, dose: 0.25 mg/kg/injection, schedule: Q04DX003 (ip), vehicle: Klucel (hydroxypropylcellulose) (HPC)): 109 % of control
- T/C (endpoint: mean survival time, dose: 0.5 mg/kg/injection, schedule: Q04DX003 (ip), vehicle: Klucel (hydroxypropylcellulose) (HPC)): 111 % of control
- T/C (endpoint: mean survival time, dose: 0.75 mg/kg/injection, schedule: Q01DX001 (ip), vehicle: Klucel (hydroxypropylcellulose) (HPC)): 103 % of control
- T/C (endpoint: mean survival time, dose: 1.0 mg/kg/injection, schedule: Q04DX003 (ip), vehicle: Klucel (hydroxypropylcellulose) (HPC)): 115 % of control
- T/C (endpoint: mean survival time, dose: 1.5 mg/kg/injection, schedule: Q01DX001 (ip), vehicle: Klucel (hydroxypropylcellulose) (HPC)): 114 % of control
- T/C (endpoint: mean survival time, dose: 3.0 mg/kg/injection, schedule: Q01DX001 (ip), vehicle: Klucel (hydroxypropylcellulose) (HPC)): 123 % of control
- T/C (endpoint: mean survival time, dose: 4.0 mg/kg/injection, schedule: Q01DX009 (ip), vehicle: Klucel (hydroxypropylcellulose) (HPC)): 158 % of control
- T/C (endpoint: mean survival time, dose: 8.0 mg/kg/injection, schedule: Q01DX009 (ip), vehicle: Klucel (hydroxypropylcellulose) (HPC)): 123 % of control
- T/C (endpoint: median survival time, dose: 0.75 mg/kg/injection, schedule: Q01DX001 (ip), vehicle: Klucel (hydroxypropylcellulose) (HPC)): 115 % of control
- T/C (endpoint: median survival time, dose: 1.5 mg/kg/injection, schedule: Q01DX001 (ip), vehicle: Klucel (hydroxypropylcellulose) (HPC)): 111 % of control
- T/C (endpoint: median survival time, dose: 1.88 mg/kg/injection, schedule: Q04DX003 (ip), vehicle: Klucel (hydroxypropylcellulose) (HPC)): 362 % of control
- T/C (endpoint: median survival time, dose: 3.0 mg/kg/injection, schedule: Q01DX001 (ip), vehicle: Klucel (hydroxypropylcellulose) (HPC)): 119 % of control
- T/C (endpoint: median survival time, dose: 3.12 mg/kg/injection, schedule: Q01DX001 (ip), vehicle: Klucel (hydroxypropylcellulose) (HPC)): 362 % of control
- T/C (endpoint: median survival time, dose: 6.25 mg/kg/injection, schedule: Q01DX001 (ip), vehicle: Klucel (hydroxypropylcellulose) (HPC)): 114 % of control
- T/C (endpoint: median survival time, dose: 12.5 mg/kg/injection, schedule: Q01DX001 (ip), vehicle: Klucel (hydroxypropylcellulose) (HPC)): 124 % of control
- T/C (endpoint: median survival time, dose: 25.0 mg/kg/injection, schedule: Q01DX001 (ip), vehicle: Klucel (hydroxypropylcellulose) (HPC)): 121 % of control

SMILES: N#CC(OC1OC(COC2OC(CO)C(O)C(O)C2O)C(O)C(O)C1O)c1ccccc1 (stereo unspecified)
- T/C (endpoint: mean survival time, dose: 12.5 mg/kg/injection, schedule: Q01DX009 (ip), vehicle: water): 94 % of control
- T/C (endpoint: mean survival time, dose: 25.0 mg/kg/injection, schedule: Q01DX009 (ip), vehicle: water): 88 % of control and 104 % of control
- T/C (endpoint: mean survival time, dose: 50.0 mg/kg/injection, schedule: Q01DX009 (ip), vehicle: water): 98 % of control and 102 % of control
- T/C (endpoint: mean survival time, dose: 100.0 mg/kg/injection, schedule: Q01DX009 (ip), vehicle: water): 94 % of control and 96 % of control
- T/C (endpoint: mean survival time, dose: 200.0 mg/kg/injection, schedule: Q01DX009 (ip), vehicle: water): 91 % of control and 102 % of control
- T/C (endpoint: mean survival time, dose: 400.0 mg/kg/injection, schedule: Q01DX009 (ip), vehicle: water): 95 % of control and 97 % of control
- T/C (endpoint: mean survival time, dose: 800.0 mg/kg/injection, schedule: Q01DX009 (ip), vehicle: water): 93 % of control and 100 % of control

SMILES: Brc1nc(-c2ccccc2)cc(-c2ccccc2)c1-c1ccccc1
- T/C [4]: 90 % of control
- T/C [5]: 90 % of control
- T/C [6]: 97 % of control

SMILES: CC/C(C)=N\O
- T/C (endpoint: mean survival time, dose: 100.0 mg/kg/injection, schedule: Q01DX009 (ip), vehicle: saline): 97 % of control
- T/C (endpoint: mean survival time, dose: 200.0 mg/kg/injection, schedule: Q01DX009 (ip), vehicle: saline): 111 % of control
- T/C (endpoint: mean survival time, dose: 400.0 mg/kg/injection, schedule: Q01DX009 (ip), vehicle: saline): 97 % of control

SMILES: Nc1cccc(CCCCc2ccc(Cl)c(S(=O)(=O)F)c2)c1
- T/C [7]: 94 % of control
- T/C [1]: 106 % of control
- T/C (endpoint: mean survival time, dose: 200.0 mg/kg/injection, schedule: Q01DX009 (ip), vehicle: saline with Tween-80): 97 % of control
- T/C [2]: 106 % of control
- T/C [3]: 108 % of control

SMILES: CC(=O)/C(=C\c1ccccc1)CNC(C)(C)C
- T/C (endpoint: mean survival time, dose: 25.0 mg/kg/injection, schedule: Q01DX001 (ip), vehicle: saline with Tween-80): 92 % of control
- T/C (endpoint: mean survival time, dose: 50.0 mg/kg/injection, schedule: Q01DX001 (ip), vehicle: saline with Tween-80): 100 % of control
- T/C [8]: 100 % of control

SMILES: Cc1c(F)cccc1NC(=O)OC(C)C
- T/C [4]: 97 % of control
- T/C [5]: 102 % of control
- T/C [6]: 94 % of control

SMILES: Nc1cc(NCc2ccco2)ncn1
- T/C (endpoint: mean survival time, dose: 37.5 mg/kg/injection, schedule: Q01DX009 (ip), vehicle: Klucel (hydroxypropylcellulose) (HPC)): 107 % of control
- T/C (endpoint: mean survival time, dose: 75.0 mg/kg/injection, schedule: Q01DX009 (ip), vehicle: Klucel (hydroxypropylcellulose) (HPC)): 97 % of control and 104 % of control

SMILES: Cc1ncc(C[P+](c2ccccc2)(c2ccccc2)c2ccccc2)c2c1OC(C)(C)OC2
- T/C (endpoint: mean survival time, dose: 75.0 mg/kg/injection, schedule: Q01DX001 (ip), vehicle: saline): 103 % of control
- T/C (endpoint: mean survival time, dose: 150.0 mg/kg/injection, schedule: Q01DX001 (ip), vehicle: saline): 112 % of control

SMILES: c1ccc(N/N=C2/c3ccccc3CC23OC3c2ccccc2)cc1 (stereo unspecified)
- T/C (endpoint: mean survival time, dose: 25.0 mg/kg/injection, schedule: Q01DX009 (ip), vehicle: Klucel (hydroxypropylcellulose) (HPC)): 97 % of control
- T/C (endpoint: mean survival time, dose: 50.0 mg/kg/injection, schedule: Q01DX009 (ip), vehicle: Klucel (hydroxypropylcellulose) (HPC)): 97 % of control
- T/C (endpoint: mean survival time, dose: 100.0 mg/kg/injection, schedule: Q01DX009 (ip), vehicle: Klucel (hydroxypropylcellulose) (HPC)): 91 % of control
- T/C (endpoint: mean survival time, dose: 200.0 mg/kg/injection, schedule: Q01DX009 (ip), vehicle: Klucel (hydroxypropylcellulose) (HPC)): 97 % of control
- T/C (endpoint: mean survival time, dose: 400.0 mg/kg/injection, schedule: Q01DX009 (ip), vehicle: Klucel (hydroxypropylcellulose) (HPC)): 97 % of control

SMILES: CC1c2ccccc2CC(CCN(C)C)c2ccccc21 (stereo unspecified)
- T/C (endpoint: median survival time, dose: 6.25 mg/kg/injection, schedule: Q01DX009 (ip), vehicle: saline with Tween-80): 94 % of control
- T/C (endpoint: median survival time, dose: 12.5 mg/kg/injection, schedule: Q01DX009 (ip), vehicle: saline with Tween-80): 113 % of control
- T/C (endpoint: median survival time, dose: 25.0 mg/kg/injection, schedule: Q01DX009 (ip), vehicle: saline with Tween-80): 108 % of control
- T/C (endpoint: median survival time, dose: 50.0 mg/kg/injection, schedule: Q01DX009 (ip), vehicle: saline with Tween-80): 112 % of control

SMILES: Cc1ccc(S(=O)(=O)[N-]Cl)cc1.[Cl][Pt][Cl]
- T/C (endpoint: mean survival time, dose: 4.7 mg/kg/injection, schedule: Q04DX003 (ip), vehicle: saline with Tween-80): 95 % of control
- T/C (endpoint: mean survival time, dose: 9.4 mg/kg/injection, schedule: Q04DX003 (ip), vehicle: saline with Tween-80): 100 % of control
- T/C (endpoint: mean survival time, dose: 18.75 mg/kg/injection, schedule: Q04DX003 (ip), vehicle: saline with Tween-80): 100 % of control
- T/C (endpoint: mean survival time, dose: 37.5 mg/kg/injection, schedule: Q04DX003 (ip), vehicle: saline with Tween-80): 103 % of control
- T/C (endpoint: mean survival time, dose: 75.0 mg/kg/injection, schedule: Q04DX003 (ip), vehicle: saline with Tween-80): 103 % of control

SMILES: O=S(=O)(O)SCC1=NCCCCN1
- T/C [1]: 101 % of control

SMILES: CC(C)CC(NC(=O)c1ccccc1)C(=O)O (stereo unspecified)
- T/C [1]: 95 % of control
- T/C [2]: 95 % of control
- T/C [3]: 101 % of control

SMILES: CC1CCCCC1NC(=O)c1ccccc1 (stereo unspecified)
- T/C [8]: 100 % of control
- T/C (endpoint: mean survival time, dose: 200.0 mg/kg/injection, schedule: Q01DX001 (ip), vehicle: saline with Tween-80): 98 % of control
- T/C (endpoint: mean survival time, dose: 400.0 mg/kg/injection, schedule: Q01DX001 (ip), vehicle: saline with Tween-80): 87 % of control

SMILES: CP1(=S)CCC(O)(c2ccccc2)CC1 (stereo unspecified)
- T/C (endpoint: mean survival time, dose: 25.0 mg/kg/injection, schedule: Q01DX009 (ip), vehicle: saline with Tween-80): 101 % of control
- T/C (endpoint: mean survival time, dose: 25.0 mg/kg/injection, schedule: Q04DX002 (ip), vehicle: saline with Tween-80): 91 % of control
- T/C (endpoint: mean survival time, dose: 50.0 mg/kg/injection, schedule: Q01DX009 (ip), vehicle: saline with Tween-80): 89 % of control
- T/C (endpoint: mean survival time, dose: 50.0 mg/kg/injection, schedule: Q04DX002 (ip), vehicle: saline with Tween-80): 91 % of control
- T/C [7]: 97 % of control
- T/C [4]: 95 % of control

From PubChem BioAssay AID256 (DTP/NCI, 2004)
